Test results from patent publication US7759326B2, “Aminophosphonic acid derivative, salt thereof, and modulator of S1P receptor” (Kyorin Pharmaceutical Co., Ltd., priority 2003, dated 2010).
Counter-ions that a name gives are not always drawn.

Columns and labels:
hS1P3 receptors = molecular target: T1, hS1P3 receptors (Homo sapiens, UniProt Q99500); assay: Intracellular Ca2+ mobilization in CHO cells expressing human S1P receptors (hS1P3); type: cell-based; conditions: read-out: S1P3 (EC50 class, intracellular Ca2+ mobilization)
T1 construct: expressed in transfected cells; host or cells: CHO cells (Geneticin-selected)
T1 sequence (Q99500 whole entry): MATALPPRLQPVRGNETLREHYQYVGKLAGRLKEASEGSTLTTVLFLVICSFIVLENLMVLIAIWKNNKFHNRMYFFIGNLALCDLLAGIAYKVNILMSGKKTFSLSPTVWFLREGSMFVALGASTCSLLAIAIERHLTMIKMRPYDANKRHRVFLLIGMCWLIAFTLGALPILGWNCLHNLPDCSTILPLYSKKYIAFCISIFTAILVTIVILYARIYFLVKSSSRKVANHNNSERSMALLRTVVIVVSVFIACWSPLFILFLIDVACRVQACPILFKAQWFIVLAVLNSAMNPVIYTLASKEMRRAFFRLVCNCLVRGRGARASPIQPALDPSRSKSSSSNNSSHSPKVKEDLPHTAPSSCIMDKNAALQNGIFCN
Protocol: (§1) Test for the Ability of Test Compounds to Induce Intracellular Ca^2+ Mobilization in Cells Expressing Human S1P (Sphingosine-1-Phosphate) Receptors
(§2) CHO cells expressing human S1P receptors (i.e., CHO cells expressing hS1P1 receptors or hS1P3 receptors) were subcultured on Ham's F-12 medium supplemented with 10% fetal bovine serum and 200 μg/mL Geneticin. The cells were seeded on a 96-well black clear bottom plate (COSTAR) at 4×10^4 cells/well and were cultured overnight at 37° C. in 5% CO2. A fluorescent reagent that emits fluorescence upon binding to Ca^2+ (Calcium Screening Kit (DOJINDO)) was added to the culture and the cells were further cultured for 60 min at 37° C. in 5% CO2. After culturing, microplate spectrofluorometer (FLEX station, MOLECULAR DEVICE) was used to measure the fluorescence intensity at an excitation wavelength of 485 nm and a detection wavelength of 525 nm. S1P or a test compound adjusted with cultural medium to a concentration 10 times higher than the final concentration (final DMSO concentration=0.1%). Each test compound solution was added 18 sec. after beginning of the measurement of fluorescence. The fluorescence intensity was measured every 1.5 sec for 100 sec. For each test compound, the difference between the maximum fluorescence intensity and the minimum fluorescence intensity (i.e., increase in fluorescence) was determined from the measurements. The rate of fluorescence increase (%) for each test compound was calculated by the difference (100%) of the fluorescence increase between solvent only and S1P (10^−6M). Using this value as an index of the ability of the test compound to induce intracellular Ca^2+ mobilization, EC50 was determined by PRISM software (GraphPad).

hS1P1 receptors = molecular target: T2, hS1P1 receptors (Homo sapiens, UniProt P21453); assay: Intracellular Ca2+ mobilization in CHO cells expressing human S1P receptors (hS1P1); type: cell-based; conditions: read-out: S1P1 (EC50 class, intracellular Ca2+ mobilization)
T2 construct: expressed in transfected cells; host or cells: CHO cells (Geneticin-selected)
T2 sequence (P21453 whole entry): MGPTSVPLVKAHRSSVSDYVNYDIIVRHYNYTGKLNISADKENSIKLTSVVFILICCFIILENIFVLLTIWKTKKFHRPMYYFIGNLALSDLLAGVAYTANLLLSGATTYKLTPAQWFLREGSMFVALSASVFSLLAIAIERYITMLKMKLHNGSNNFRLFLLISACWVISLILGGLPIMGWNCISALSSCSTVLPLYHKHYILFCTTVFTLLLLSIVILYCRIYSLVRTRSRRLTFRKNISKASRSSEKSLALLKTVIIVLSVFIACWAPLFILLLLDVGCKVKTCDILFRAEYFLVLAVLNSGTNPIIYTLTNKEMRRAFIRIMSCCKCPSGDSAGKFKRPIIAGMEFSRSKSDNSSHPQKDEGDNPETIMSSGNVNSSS
Protocol: as §1, §2

[1] = test system: host vs. graft rejection in mice; assay: Inhibitory effects on host vs. graft rejection in mice (right popliteal lymph node weight); type: in vivo, C3H/HeN mice; conditions: Mus musculus
Protocol: Inhibitory Effects of Test Compounds on Host Vs. Graft Rejection in Mice
This experiment was performed according to the method described in Transplantation 55(3) (1993): 578-591. Spleens were collected from 6 to 16 week old male BALB/c mice (CHARLES RIVER JAPAN). The spleens were placed in an RPMI-1640 medium (SIGMA) and were gently pressed between two slide glasses and then passed through a cell strainer (70 μm, Falcon) to form a cell suspension. The suspension was then centrifuged and the supernatant was discarded. An ammonium chloride-Tris isotonic buffer was added to the suspension to lyse erythrocytes. The cells were then centrifuged three times in RPMI-1640 medium for washing and were resuspended in an RPMI-1640 medium. To this suspension, mitomycin C (KYOWA HAKKO KOGYO Co., Ltd.) was added to a final concentration of 25 μg/mL and the suspension was incubated for 30 minutes at 37° C. in a 5% CO2 atmosphere. The cells were centrifuged three times in RPMI-1640 medium for washing and were resuspended in an RPMI-1640 medium so that the medium would contain 2.5×10^8 cells/mL. This suspension served as a “stimulation cell suspension.” Using a 27 G needle with a microsyringe (Hamilton), 20 μL (5×10^6 cells/mouse) of the stimulation cell suspension was subcutaneously injected into the right hind footpad of 6 to 8 week old male C3H/HeN mice (CLEA JAPAN). Normal control group was injected with RPMI-1640 medium alone. 4 days after the injection, right popliteal lymph nodes were collected and were weighed on a Mettler AT201 electronic scale (METTLER TOLEDO Co., Ltd.). Each animal was intraperitoneally administered a test compound once a day for four consecutive days starting on the day of the injection of the stimulation cells (i.e., total of 4 times). Control groups were administered the same vehicle as that used in the preparation of each test compound. The inhibition (%) was determined using the following formula {[Weight of right popliteal lymph nodes of positive control group]−[Weight of right popliteal lymph nodes of test compound group]×100}/{[Weight of right popliteal lymph nodes of positive control group]−[Weight of right popliteal lymph nodes of normal control group]} Formula 1

Compound	EC50 (hS1P3 receptors) [nM]	EC50 (hS1P1 receptors) [nM]	inhibition in vivo at 0.03 mg/kg [1] [%]	inhibition in vivo at 30 mg/kg [1] [%]	inhibition in vivo at 3 mg/kg ([1]; Dose 3 mg/kg) [%]	inhibition in vivo at 10 mg/kg [1] [%]	melting point [°C]
CC(N)(CCCc1ccc(Sc2cccc(OCc3ccccc3)c2)cc1Cl)COP(=O)(O)O (single isomer, unassigned; (+)) [Example 239, (+)-2-amino-5-[4-(3-benzyloxyphenylthio)-2-chlorophenyl]-2-methylpentylphosphonate monoester]	< 10	< 10	65	–	–	–	–
COP(=O)(OC)OCC(C)(CCc1ccc(Sc2cccc(OCc3ccccc3)c2)cc1Cl)NC(=O)OC(C)(C)C (single isomer, unassigned; (+)) [Example 247, (+)-4-[4-(3-benzyloxyphenylthio)-2-chlorophenyl]-2-t-butoxycarbonylamino-1-dimethoxyphosphoryloxy-2-methylbutane]	–	–	63	–	–	–	–
CCOP(=O)(C=CC(N)CCCc1ccc(Sc2cccc(OCc3ccccc3)c2)cc1Cl)OCC (stereo not drawn) [Example 233, Diethyl 3-amino-6-[4-(3-benzyloxyphenylthio)-2-chlorophenyl]-1-hexenylphosphonate hydrochloride]	–	–	–	53	–	–	–
CCOP(=O)(CCC(N)CCCc1ccc(Sc2cccc(OCc3ccccc3)c2)cc1Cl)OCC (stereo not drawn) [Example 235, Diethyl 3-amino-6-[4-(3-benzyloxyphenylthio)-2-chlorophenyl]hexylphosphonate hydrochloride]	–	–	–	56	–	–	–
NC(CO)(CCCc1ccc(Sc2cccc(O)c2)cc1Cl)COP(=O)(O)O (stereo not drawn) [Example 238, 2-amino-5-[2-chloro-4-(3-hydroxyphenylthio)phenyl]-2-hydroxymethylpentylphosphonate monoester]	≥ 1000	100 to 1000	–	–	65	–	–
NC(CCCc1ccc(Sc2cccc(OCc3ccccc3)c2)cc1Cl)CCP(=O)(O)O (stereo not drawn) [Example 241, 3-amino-6-[4-(3-benzyloxyphenylthio)-2-chlorophenyl]hexylphosphonic acid]	≥ 1000	100 to 1000	–	–	–	46	–
NC(/C=C/P(=O)(O)O)CCCc1ccc(Sc2cccc(OCc3ccccc3)c2)cc1Cl (stereo not drawn) [Example 242, 3-amino-6-[4-(3-benzyloxyphenylthio)-2-chlorophenyl]-1-hexenylphosphonic acid]	≥ 1000	100 to 1000	–	–	–	62	–
NC(/C=C(/F)P(=O)(O)O)CCc1ccc(Sc2cccc(OCc3ccccc3)c2)cc1Cl (stereo not drawn) [Example 253, (Z)-3-amino-5-[4-(3-benzyloxyphenylthio)-2-chlorophenyl]-1-fluoro-1-pentenylphosphonic acid]	100 to 1000	100 to 1000	–	–	–	–	285 to 288
NC(/C=C(\F)P(=O)(O)O)CCc1ccc(Sc2cccc(OCc3ccccc3)c2)cc1Cl (stereo not drawn) [Example 254, (E)-3-amino-5-[4-(3-benzyloxyphenylthio)-2-chlorophenyl]-1-fluoro-1-pentenylphosphonic acid]	≥ 1000	10 to 100	–	–	–	–	288 to 290
CC(N)(CCCc1ccc(Sc2cccc(OCc3ccccc3)c2)cc1Cl)CCP(=O)(O)O (stereo not drawn) [Example 260, 3-amino-6-[4-(3-benzyloxyphenylthio)-2-chlorophenyl]-3-methylhexylphosphonic acid]	100 to 1000	10 to 100	–	–	–	–	195 to 197
NC(/C=C/P(=O)(O)O)(CO)CCCc1ccc(Sc2cccc(OCc3ccccc3)c2)cc1Cl (stereo not drawn) [Example 263, 3-amino-[4-(3-benzyloxyphenylthio)-2-chlorophenyl]-3-hydroxymethyl-1-hexenylphosphonic acid]	100 to 1000	< 10	–	–	–	–	243 to 246
NC(CO)(CCCc1ccc(Sc2cccc(OCc3ccccc3)c2)cc1Cl)CCP(=O)(O)O (stereo not drawn) [Example 265, 3-amino-6-[4-(3-benzyloxyphenylthio)-2-chlorophenyl]-3-hydroxymethylhexylphosphonic acid]	100 to 1000	< 10	–	–	–	–	193 to 196
NC(/C=C/P(=O)(O)O)(CO)CCc1ccc(Sc2cccc(OCc3ccccc3)c2)cc1Cl (stereo not drawn) [Example 267, 3-amino-5-[4-(3-benzyloxyphenylthio)-2-chlorophenyl]-3-hydroxymethyl-1-pentenylphosphonic acid]	≥ 1000	< 10	–	–	–	–	245 to 248
NC(CO)(CCc1ccc(Sc2cccc(OCc3ccccc3)c2)cc1Cl)CCP(=O)(O)O (stereo not drawn) [Example 269, 3-amino-5-[4-(3-benzyloxyphenylthio)-2-chlorophenyl]-3-hydroxymethylpentylphosphonic acid]	≥ 1000	10 to 100	–	–	–	–	205 to 208
Cl.NC(CO)(CCCc1ccc(Sc2cccc(OCc3ccccc3)c2)cc1Cl)CP(=O)(O)O (stereo not drawn) [Example 286, 2-amino-5-[4-(3-benzyloxyphenylthio)-2-chlorophenyl]-2-hydroxymethylpentylphosphonate hydrochloride]	≥ 1000	10 to 100	–	–	–	–	98 to 101
NC(/C=C/P(=O)(O)O)(CO)CCCCc1ccc(Sc2cccc(OCc3ccccc3)c2)cc1Cl (stereo not drawn) [Example 290, 3-amino-[4-(3-benzyloxyphenylthio)-2-chlorophenyl]-3-hydroxymethyl-1-heptenylphosphonic acid]	10 to 100	< 10	–	–	–	–	258 to 260
